Source: publication PMC11073699, “Odorant receptors for floral- and plant-derived volatiles in the yellow fever mosquito, Aedes aegypti (Diptera: Culicidae)” (PLOS ONE, 2024)
Where “and” joins values, the source holds several entries; their conditions need not be identical. Equal entries are not always repeated.

Assays:
Assay type in all cases: cell-based
AaegOR13 = molecular target: T1, AaegOR13 (Aedes aegypti, UniProt Q16Z13); experiment: Two-electrode voltage clamp of Xenopus laevis oocytes expressing AaegOR13/Orco (blends, unitary compounds, concentration-response); settings: for Raw data (Responses in nA), unitary compounds of Indoles 1, Alcohols 1, Alcohols 3: individual oocytes 1-7
T1 sequence (Q16Z13 1-389): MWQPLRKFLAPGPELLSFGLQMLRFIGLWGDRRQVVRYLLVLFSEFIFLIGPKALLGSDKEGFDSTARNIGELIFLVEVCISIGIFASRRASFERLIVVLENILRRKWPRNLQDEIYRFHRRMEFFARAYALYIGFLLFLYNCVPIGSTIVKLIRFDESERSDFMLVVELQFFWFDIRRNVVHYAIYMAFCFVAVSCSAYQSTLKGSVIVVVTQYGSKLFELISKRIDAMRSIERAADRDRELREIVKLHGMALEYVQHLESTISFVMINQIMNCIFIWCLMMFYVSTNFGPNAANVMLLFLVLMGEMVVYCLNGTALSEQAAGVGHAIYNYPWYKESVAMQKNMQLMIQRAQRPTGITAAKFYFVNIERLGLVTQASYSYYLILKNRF
T1 sequence (Q178U6 1-478 partner): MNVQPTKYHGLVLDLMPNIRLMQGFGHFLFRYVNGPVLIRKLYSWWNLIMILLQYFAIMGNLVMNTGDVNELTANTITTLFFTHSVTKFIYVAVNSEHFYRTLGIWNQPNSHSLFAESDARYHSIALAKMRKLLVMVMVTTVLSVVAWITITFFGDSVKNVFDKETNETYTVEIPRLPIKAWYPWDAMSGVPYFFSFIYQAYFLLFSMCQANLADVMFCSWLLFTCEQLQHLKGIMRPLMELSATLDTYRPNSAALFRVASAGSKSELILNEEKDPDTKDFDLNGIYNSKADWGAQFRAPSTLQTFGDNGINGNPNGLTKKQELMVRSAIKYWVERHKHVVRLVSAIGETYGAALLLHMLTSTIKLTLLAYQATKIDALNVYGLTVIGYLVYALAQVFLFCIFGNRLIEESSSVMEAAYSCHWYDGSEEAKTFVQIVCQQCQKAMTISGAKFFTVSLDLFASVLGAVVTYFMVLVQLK
Method in brief: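 Xenopus oocytes injected with cRNA for AaegOR plus Orco, kept 48–72 hrs at 18°C, clamped at -80 mV by TEVC. Odorant blends or single compounds (10% DMSO dilutions) perfused 10–15 s; concentration-response from 10^-3M to 10^-9M, ≥7 responding oocytes, ≥2 biological replicates.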

AaegOR10 = molecular target: T2, AaegOR10 (Aedes aegypti, UniProt Q177X3); experiment: Two-electrode voltage clamp of Xenopus laevis oocytes expressing AaegOR10/Orco (blends, unitary compounds, concentration-response); settings: for Raw response, unitary compounds of blend Indoles 1: unitary compounds of Indoles 1, individual oocytes 1-9 (replicates); for Raw Data, concentration-response: first series, oocytes 1-8
T2 sequence (Q177X3 1-375): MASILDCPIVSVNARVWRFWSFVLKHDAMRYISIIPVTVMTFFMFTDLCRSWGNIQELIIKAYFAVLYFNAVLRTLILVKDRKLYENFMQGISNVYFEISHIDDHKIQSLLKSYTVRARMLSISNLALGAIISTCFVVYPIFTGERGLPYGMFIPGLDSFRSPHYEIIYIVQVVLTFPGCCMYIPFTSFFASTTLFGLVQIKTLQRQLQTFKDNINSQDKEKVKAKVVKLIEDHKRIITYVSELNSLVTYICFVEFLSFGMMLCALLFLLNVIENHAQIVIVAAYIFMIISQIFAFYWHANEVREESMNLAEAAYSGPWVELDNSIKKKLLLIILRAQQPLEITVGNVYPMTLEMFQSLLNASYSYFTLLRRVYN
T2 sequence (Q178U6 1-478 partner): T1 sequence (Q178U6 1-478 partner)
Text: (§1) The coding regions of ten AaegOR genes of interest (S3 File) and AaegOrco were synthesized by Twist Bioscience (San Francisco, CA, USA) and cloned into the pENTR plasmid. The Gateway LR directional cloning system (Invitrogen Corp., Carlsbad, CA, USA) was utilized to subclone AaegOR coding regions into the pSP64t-RFA oocyte expression plasmid. Plasmids were purified using the GeneJet Plasmid Miniprep Kit (ThermoFisher Scientific, Waltham, MA, USA). Purified plasmids were sequenced in both directions to confirm coding regions.
(§2) Chemical compounds (S6 File) used in the deorphanization of AaegORs were purchased from Acros Organics (Morris, NJ, USA), Alfa Aesar (Ward Hill, MA, USA), and ThermoFisher Scientific (Waltham, MA, USA) at the highest purity available. Compounds were stored as 1M stocks in 100% DMSO. Serial dilutions of each compound were prepared in 10% DMSO and blended by chemical class.
(§3) pSP64t-RFA: AaegOR clones were linearized using Xbal, and cRNAs were synthesized using the mMESSAGE mMACHINE ® SP6 kit (Life Technologies, Carlsbad, CA, USA). Xenopus laevis stage V-VII oocytes purchased from Xenopus1 (Dexter, MI, USA) were stored at 18°C in Incubation medium (ND96 96 with 5% dialyzed horse serum, 50μg/mL gentamycin, 100μg/mL streptomycin, 100μg/mL penicillin, and 550μg/mL sodium pyruvate). 30nL of cRNA was injected into multiple oocytes using a microinjection syringe pump (World Precision Instruments, Sarasota, FL, USA) maintained at 18°C for 48–72 hrs. Odorant blends were perfused across individual oocytes for 10–15 seconds, held at a resting membrane potential of -80 mV using an OC-725C oocyte clamp (Warner Instruments, LLC, Hamden, CT, USA). Induced currents were measured indirectly using the two-electrode voltage clamp technique (TEVC). Following each stimulus, currents were allowed to return to baseline before further stimulation. Data was captured using the Digidata 1550 B digitizer and PClamp10 software (Molecular Devices, San Jose, CA, USA). Concentration-response curves were generated by perfusing unitary odorants over oocytes at increasing concentrations from [10^-3M] to [10^-9M]. Data were analyzed using GraphPad Prism 8 (GraphPad Software Inc., La Jolla, CA, USA). At least two biological replicates were conducted at each concentration and for each compound. Data for at least seven oocytes responding to each compound was analyzed (S7 File).

AaegOR55 = molecular target: T3, AaegOR55 (Aedes aegypti, UniProt Q16T12); experiment: Two-electrode voltage clamp of Xenopus laevis oocytes expressing AaegOR55/Orco (blends, unitary compounds, concentration-response); settings: for Raw Data (Responses in nA), concentration-response: individual oocytes (Oocyte 1-9)
T3 sequence (Q16T12 10-392): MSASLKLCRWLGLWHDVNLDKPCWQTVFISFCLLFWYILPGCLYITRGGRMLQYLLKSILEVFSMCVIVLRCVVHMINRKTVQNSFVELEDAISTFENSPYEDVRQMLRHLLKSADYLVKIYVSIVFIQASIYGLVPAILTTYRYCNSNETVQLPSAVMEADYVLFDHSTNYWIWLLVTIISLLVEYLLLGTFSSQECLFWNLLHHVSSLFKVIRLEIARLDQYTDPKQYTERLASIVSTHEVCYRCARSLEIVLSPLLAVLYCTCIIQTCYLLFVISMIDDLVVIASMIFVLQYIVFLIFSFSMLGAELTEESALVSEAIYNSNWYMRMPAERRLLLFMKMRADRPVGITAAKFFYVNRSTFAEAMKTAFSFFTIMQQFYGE
T3 sequence (Q178U6 1-478 partner): T1 sequence (Q178U6 1-478 partner)
Text: as §1, §2, §3

[1] = AaegOR55, compounds of blend Indoles 1, individual oocytes (Oocyte 1-7)

Row | Compound | Raw data (Responses in nA), unitary compounds of Indoles 1, Alcohols 1, Alcohols 3 (AaegOR13) | Raw response, unitary compounds of blend Indoles 1 (AaegOR10) | Raw Data (Responses in nA), Indoles 1 unitary compounds (AaegOR55; [1]) | other results
1 | Cc1[nH]c2ccccc2c1C [2,3-dimethylindole] | 0.0 nA (6×) and 5.0 nA | 70.0 nA and 20.0 nA and 0.0 nA (4×) and 10.0 nA (2×) and 30.0 nA | 235.0 nA and 140.0 nA and 250.0 nA and 300.0 nA and 185.0 nA and 305.0 nA and 295.0 nA | EC50 (AaegOR55; AaegOR55/Orco expressing oocytes, TEVC, concentration-response of normalized current): 8650 nM; Raw Data (Responses in nA), concentration-response (AaegOR55; AaegOR55, concentration 1e-7 M): 10.0 nA (6×) and 15.0 nA (2×) and 5.0 nA; Raw Data (Responses in nA), concentration-response (AaegOR55; AaegOR55, concentration 5e-7 M): 30.0 nA (4×) and 20.0 nA (2×) and 15.0 nA and 40.0 nA and 45.0 nA; Raw Data (Responses in nA), concentration-response (AaegOR55; AaegOR55, concentration 1e-6 M): 20.0 nA (2×) and 10.0 nA and 30.0 nA (2×) and 15.0 nA and 35.0 nA and 40.0 nA and 55.0 nA; Raw Data (Responses in nA), concentration-response (AaegOR55; AaegOR55, concentration 5e-6 M): 70.0 nA and 25.0 nA and 80.0 nA and 60.0 nA (2×) and 110.0 nA and 120.0 nA and 190.0 nA (2×); Raw Data (Responses in nA), concentration-response (AaegOR55; AaegOR55, concentration 1e-5 M): 90.0 nA (2×) and 25.0 nA and 120.0 nA and 80.0 nA and 140.0 nA and 170.0 nA and 260.0 nA (2×); Raw Data (Responses in nA), concentration-response (AaegOR55; AaegOR55, concentration 5e-5 M): 165.0 nA and 40.0 nA and 210.0 nA and 140.0 nA and 170.0 nA and 220.0 nA and 240.0 nA and 430.0 nA and 380.0 nA; Raw Data (Responses in nA), concentration-response (AaegOR55; AaegOR55, concentration 0.0001 M): 160.0 nA and 55.0 nA and 210.0 nA (3×) and 140.0 nA and 180.0 nA and 440.0 nA and 380.0 nA
2 | Cc1cc2ccccc2[nH]1 [2-Methylindole] | 0.0 nA (6×) and 5.0 nA | 0.0 nA | 0.0 nA | –
3 | Cc1c[nH]c2ccccc12 [3-methylindole] | 0.0 nA and 5.0 nA (5×) and 10.0 nA | 270.0 nA and 500.0 nA and 120.0 nA and 40.0 nA and 80.0 nA and 320.0 nA and 70.0 nA and 180.0 nA and 30.0 nA | 160.0 nA and 85.0 nA and 170.0 nA and 235.0 nA and 120.0 nA and 225.0 nA and 245.0 nA | Raw Data, concentration-response (AaegOR10; 5e-7 M): 90.0 nA; Raw Data, concentration-response (AaegOR10; 1e-5 M): 100.0 nA; EC50 (AaegOR10; AaegOR10/Orco expressing oocytes, TEVC, concentration-response of normalized current): 160 nM; response of AaegOR55 to unitary compounds (AaegOR55; AaegOR55/Orco expressing oocytes, TEVC, individual compounds): responded
4 | CCc1ccc(O)cc1 [4-ethylphenol, 4-Ethylphenol] | 70.0 nA and 740.0 nA and 340.0 nA and 310.0 nA and 300.0 nA and 275.0 nA and 250.0 nA | 0.0 nA | 5.0 nA (5×) and 0.0 nA (2×) | EC50 (AaegOR13; AaegOR13/Orco expressing oocytes, TEVC, concentration-response of normalized current): ~170 nM and 170 nM
5 | O=Cc1c[nH]c2ccccc12 [indole-3-carboxaldehyde] | – | 80.0 nA and 30.0 nA and 100.0 nA and 20.0 nA (2×) and 70.0 nA and 0.0 nA (3×) | 50.0 nA and 25.0 nA (2×) and 40.0 nA and 20.0 nA and 45.0 nA and 35.0 nA | –
6 | c1ccc2[nH]ccc2c1 [indole] | 0.0 nA (3×) and 5.0 nA (4×) | 0.0 nA (6×) and 80.0 nA and 10.0 nA (2×) | 40.0 nA (2×) and 15.0 nA and 30.0 nA (2×) and 25.0 nA (2×) | –
7 | COC(=O)c1c[nH]c2ccccc12 [methyl indole-3-carboxylate] | 0.0 nA and 20.0 nA and 15.0 nA (2×) and 10.0 nA (3×) | 0.0 nA (6×) and 10.0 nA (2×) and 30.0 nA | – | –
8 | COC(=O)c1c[nH]c2ccccc12 [methylindole-3-carboxylate] | – | – | 20.0 nA and 10.0 nA (5×) and 15.0 nA | Normalized response, Average, Indoles 1 unitary compounds (AaegOR55; AaegOR55, compounds of blend Indoles 1, average of 7 oocytes): 5.2; Normalized response, Indoles 1 unitary compounds (AaegOR55; AaegOR55, compounds of blend Indoles 1, individual oocytes (Oocyte 1-7), normalized to the strongest compound per oocyte): 8.5 and 7.1 and 4.0 and 3.3 and 5.4 and 4.9 and 3.4
